Measured values published in patent EP3839043A1, “SCREENING METHODS FOR COMPOUNDS MODULATING POLYAMINE TRANSPORT” (Katholieke Universiteit Leuven, priority 2019, dated 2021).
Marks after values point to notes of the source that are not given here.

Columns and labels:
Microsomal ATP13A2 = molecular target: T1, Microsomal ATP13A2 (Homo sapiens, UniProt Q9NQ11); assay: ATPase assay (ADP-Glo Max), solubilized microsomes of SH-SY5Y cells overexpressing ATP13A2 WT; type: biochemical; conditions: for ATPase activity of ATP13A2 WT, screen for candidate substrates: 100 nM CaCl2, MnCl2, ZnCl2 or FeCl3, 100 µM SPD or SPM; for Vmax ± SEM: Microsomal ATP13A2; for ATPase activity of ATP13A2, dose-response: indicated doses, microsomes 5 µg
T1 construct: expressed in transfected cells; host or cells: SH-SY5Y human neuroblastoma cells, lentiviral transduction; microsomes solubilised with DDM
T1 sequence (Q9NQ11 1-1175 isoform Q9NQ11-3): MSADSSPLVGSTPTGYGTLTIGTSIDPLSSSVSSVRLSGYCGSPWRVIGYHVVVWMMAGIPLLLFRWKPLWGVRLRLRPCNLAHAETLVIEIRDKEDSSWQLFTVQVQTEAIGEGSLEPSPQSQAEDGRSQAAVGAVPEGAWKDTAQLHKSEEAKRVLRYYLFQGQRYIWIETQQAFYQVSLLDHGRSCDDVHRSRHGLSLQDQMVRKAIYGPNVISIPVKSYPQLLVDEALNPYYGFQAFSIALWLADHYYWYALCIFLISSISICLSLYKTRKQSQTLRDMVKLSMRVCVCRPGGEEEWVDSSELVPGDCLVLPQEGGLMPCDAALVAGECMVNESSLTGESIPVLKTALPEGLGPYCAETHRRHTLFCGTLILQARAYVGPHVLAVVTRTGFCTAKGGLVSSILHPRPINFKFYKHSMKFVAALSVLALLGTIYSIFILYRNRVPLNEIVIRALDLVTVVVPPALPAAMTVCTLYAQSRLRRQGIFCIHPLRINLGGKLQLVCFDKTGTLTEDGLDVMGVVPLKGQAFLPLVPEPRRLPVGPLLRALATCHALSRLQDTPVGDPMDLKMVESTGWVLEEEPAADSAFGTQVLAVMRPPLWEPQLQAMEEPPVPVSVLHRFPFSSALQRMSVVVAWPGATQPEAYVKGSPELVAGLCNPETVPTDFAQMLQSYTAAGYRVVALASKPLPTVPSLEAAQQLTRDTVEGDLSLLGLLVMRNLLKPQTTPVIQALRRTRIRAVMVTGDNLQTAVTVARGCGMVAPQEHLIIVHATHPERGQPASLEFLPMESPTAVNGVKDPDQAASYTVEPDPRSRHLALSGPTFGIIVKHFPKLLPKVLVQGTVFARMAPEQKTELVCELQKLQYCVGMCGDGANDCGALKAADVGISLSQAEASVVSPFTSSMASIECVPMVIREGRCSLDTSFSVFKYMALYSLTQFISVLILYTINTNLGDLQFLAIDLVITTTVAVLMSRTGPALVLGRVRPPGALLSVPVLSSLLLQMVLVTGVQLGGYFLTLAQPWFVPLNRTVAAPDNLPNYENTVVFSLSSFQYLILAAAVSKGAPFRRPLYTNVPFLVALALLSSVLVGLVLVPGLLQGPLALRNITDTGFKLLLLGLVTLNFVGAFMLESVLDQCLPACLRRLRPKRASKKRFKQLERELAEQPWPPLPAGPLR
Description: Membrane fractionation - Transduced SH-SY5Y cells were seeded in […] at a density of 6 x 10^6 cells per plate. 24 h later, the cells were harvested following trypsinization and brief centrifugation (300 x g, 5 min). Subcellular fractionation was performed by differential centrifugation. The microsomal protein concentration was measured using the bicinchoninic acid assay (Thermo Fischer Scientific, Pierce) according to the manufacturer's instructions.
ATPase assay - The ATPase activity of ATP13A2 was assessed using a commercially available luminescence assay (ADP-Glo Max assay, Promega) that monitors the production of ADP via luciferase activity. The reactions were performed for 30 min (37°C) in a final volume of 25 µl. […] The assay was started by the addition of 5 mM ATP and was terminated by adding 25 µl of ADP-Glo Reagent. The 96-well plate was then incubated for 40 min at room temperature, followed by the addition of 50 µl of ADP-Glo Max Detection Reagent. After 40 min, luminescence was detected using a FlexStation 3.0 system (Molecular Devices). Dose-response curves and n/Km/Vmax values were calculated using GraphPad Prism Software (GraphPad Software Inc.).

SH-SY5Y cells = assay: MUH cytotoxicity assay; type: cell-based, human; conditions: increasing concentrations, 24 h
Description: MUH cytotoxicity assay - SH-SY5Y cells were seeded in 96-well plates (1 X 10^4 cells per well) and allowed to adhere overnight. The cells were subsequently treated with increasing doses of the indicated compounds for 24-48 h. Following exposure, the cells were washed with PBS and stained with 300 µg/ml MUH (prepared in DMSO, dissolved in PBS) for 30 min at 37°C.

Row | SMILES | ATPase activity of ATP13A2 WT, screen for candidate substrates (Microsomal ATP13A2) | Vmax ± SEM (Microsomal ATP13A2) | ATPase activity of ATP13A2, dose-response (Microsomal ATP13A2) | viability of control cells (SH-SY5Y cells) | Hill coefficient of SPM-induced ATPase activity (Microsomal ATP13A2; microsomal ATP13A2 WT)
1 | NCCCCNCCCN [Spermidine, spermidine] | significantly stimulated ATPase activity | ∼ 106* nmol ADP/mg/min | stimulate ATPase activity in a concentration-dependent manner | reduced the viability | –
2 | NCCCNCCCCNCCCN [Spermine, spermine] | significantly stimulated ATPase activity | 140 ± 6 nmol ADP/mg/min | stimulate ATPase activity in a concentration-dependent manner | reduced the viability | approaches one
